Experimental findings from patent US20230416248A1, “COMPOUNDS AND USES THEREOF” (Foghorn Therapeutics Inc., priority 2020, published 2023) are described below.

Molecules are shown by their SMILES.

In general, IC50 refers to the concentration that inhibits the measured activity by half.

One assay has as its target T1, BRM (Homo sapiens, UniProt P51531).
T1 construct: made in house; host or cells: High Five insect cells
Nature of the assay: ATPase catalytic activity of BRM, ADP-Glo in vitro biochemical assay. The conditions noted are these: for IC50: ADP-Glo ATPase assay, 30 nM BRM, 400 μM ATP; for Ratio* (BRG1 IC50 (μM) divided by BRM IC50 (μM)): selectivity ratio BRG1 IC50 / BRM IC50. On the procedure: (§1) The ATPase catalytic activity of BRM or BRG-1 was measured by an in vitro biochemical assay using ADP-Glo™ (Promega, V9102). The ADP-Glo™ kinase assay is performed in two steps once the reaction is complete. The first step is to deplete any unconsumed ATP in the reaction. The second step is to convert the reaction product ADP to ATP, which will be utilized by the luciferase to generate luminesce and be detected by a luminescence reader, such as Envision.
The assay reaction mixture ([…]) contains 30 nM of BRM or BRG-1, 20 nM salmon sperm DNA (from Invitrogen, UfraPure™ Salmon Sperm DNA Solution, cat #15632011), and 400 μM of ATP in the ATPase assay buffer, which comprises of 20 mM Tris, pH 8, 20 mM MgCl2, 50 mM NaCl, 0.1% Tween-20, and 1 mM fresh DTT (Piercer™ DTT (Dithiothreitol), cat #20290). The reaction is initiated by the addition of the 2.5 μL ATPase solution to 2.5 μL ATP/DNA solution on low volume white Proxiplate-384 plus plate (PerkinElmer, cat #6008280) and incubates at room temperature for 1 hour. Then, following addition of 5 μL of ADP-Glo™ Reagent provided in the kit, the reaction incubates at room temperature for 40 minutes. Then, 10 μL of Kinase Detection Reagent provided in the kit is added to convert ADP to ATP, and the reaction incubates at room temperature for 60 minutes. Finally, luminescence measurement is collected with a plate-reading luminometer, such as Envision.

The target in another assay is T2, BRG-1 (Homo sapiens, UniProt P51532).
T2 construct: made in house; host or cells: High Five insect cells
T2 sequence (P51532 whole entry): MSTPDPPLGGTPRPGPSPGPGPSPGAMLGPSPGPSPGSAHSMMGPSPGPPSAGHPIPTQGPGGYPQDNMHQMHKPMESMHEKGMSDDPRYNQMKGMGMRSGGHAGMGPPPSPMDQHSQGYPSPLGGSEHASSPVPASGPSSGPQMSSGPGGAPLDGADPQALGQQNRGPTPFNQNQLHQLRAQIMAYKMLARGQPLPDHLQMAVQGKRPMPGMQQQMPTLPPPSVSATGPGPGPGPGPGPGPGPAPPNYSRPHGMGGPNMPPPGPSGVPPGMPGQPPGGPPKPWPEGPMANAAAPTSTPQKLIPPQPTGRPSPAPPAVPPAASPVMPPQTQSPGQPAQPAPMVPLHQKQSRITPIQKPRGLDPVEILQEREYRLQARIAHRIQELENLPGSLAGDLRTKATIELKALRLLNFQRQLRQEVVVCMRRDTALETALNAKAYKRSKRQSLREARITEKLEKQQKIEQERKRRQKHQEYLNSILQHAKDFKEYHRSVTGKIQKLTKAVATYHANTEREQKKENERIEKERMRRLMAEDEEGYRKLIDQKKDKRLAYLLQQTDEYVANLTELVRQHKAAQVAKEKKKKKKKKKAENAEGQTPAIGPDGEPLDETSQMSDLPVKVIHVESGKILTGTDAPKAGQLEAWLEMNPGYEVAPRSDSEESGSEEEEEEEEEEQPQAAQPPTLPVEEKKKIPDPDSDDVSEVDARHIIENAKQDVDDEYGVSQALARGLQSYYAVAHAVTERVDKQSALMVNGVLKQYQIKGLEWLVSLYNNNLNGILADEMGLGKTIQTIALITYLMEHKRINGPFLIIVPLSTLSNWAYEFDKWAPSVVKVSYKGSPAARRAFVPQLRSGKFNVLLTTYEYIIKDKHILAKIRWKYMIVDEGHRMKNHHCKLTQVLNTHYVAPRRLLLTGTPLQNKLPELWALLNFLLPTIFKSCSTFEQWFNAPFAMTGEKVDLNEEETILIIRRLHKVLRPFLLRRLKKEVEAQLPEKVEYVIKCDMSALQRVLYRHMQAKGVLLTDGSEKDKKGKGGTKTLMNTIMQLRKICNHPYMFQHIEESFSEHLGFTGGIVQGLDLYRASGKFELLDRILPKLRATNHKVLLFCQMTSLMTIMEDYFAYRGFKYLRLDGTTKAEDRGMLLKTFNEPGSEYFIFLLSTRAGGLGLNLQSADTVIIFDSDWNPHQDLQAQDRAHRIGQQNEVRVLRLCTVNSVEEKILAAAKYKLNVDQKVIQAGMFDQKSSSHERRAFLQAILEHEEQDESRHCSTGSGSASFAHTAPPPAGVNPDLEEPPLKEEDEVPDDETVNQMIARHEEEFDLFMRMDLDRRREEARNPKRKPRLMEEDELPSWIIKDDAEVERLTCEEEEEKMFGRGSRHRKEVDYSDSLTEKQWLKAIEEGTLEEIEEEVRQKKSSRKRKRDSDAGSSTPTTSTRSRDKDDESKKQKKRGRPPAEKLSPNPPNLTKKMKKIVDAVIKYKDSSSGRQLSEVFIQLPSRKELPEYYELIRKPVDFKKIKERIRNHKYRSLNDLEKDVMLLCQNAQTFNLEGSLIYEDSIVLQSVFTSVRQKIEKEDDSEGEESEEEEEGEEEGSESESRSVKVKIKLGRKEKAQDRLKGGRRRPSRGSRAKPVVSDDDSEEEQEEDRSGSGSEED
Nature of the assay: ATPase catalytic activity of BRG-1, ADP-Glo in vitro biochemical assay. Particulars: ADP-Glo ATPase assay, 30 nM BRG-1, 400 μM ATP; read-out: BRG1 IC50. The procedure:
as §1
Then, following addition of 5 μL of ADP-Glo™ Reagent provided in the kit, the reaction incubates at room temperature for 40 minutes. Then, 10 μL of Kinase Detection Reagent provided in the kit is added to convert ADP to ATP, and the reaction incubates at room temperature for 60 minutes. Finally, luminescence measurement is collected with a plate-reading luminometer, such as Envision.
Background: ADP-Glo first removes unused ATP, then detects ADP through luciferase.

T1 sequence (P51531 whole entry): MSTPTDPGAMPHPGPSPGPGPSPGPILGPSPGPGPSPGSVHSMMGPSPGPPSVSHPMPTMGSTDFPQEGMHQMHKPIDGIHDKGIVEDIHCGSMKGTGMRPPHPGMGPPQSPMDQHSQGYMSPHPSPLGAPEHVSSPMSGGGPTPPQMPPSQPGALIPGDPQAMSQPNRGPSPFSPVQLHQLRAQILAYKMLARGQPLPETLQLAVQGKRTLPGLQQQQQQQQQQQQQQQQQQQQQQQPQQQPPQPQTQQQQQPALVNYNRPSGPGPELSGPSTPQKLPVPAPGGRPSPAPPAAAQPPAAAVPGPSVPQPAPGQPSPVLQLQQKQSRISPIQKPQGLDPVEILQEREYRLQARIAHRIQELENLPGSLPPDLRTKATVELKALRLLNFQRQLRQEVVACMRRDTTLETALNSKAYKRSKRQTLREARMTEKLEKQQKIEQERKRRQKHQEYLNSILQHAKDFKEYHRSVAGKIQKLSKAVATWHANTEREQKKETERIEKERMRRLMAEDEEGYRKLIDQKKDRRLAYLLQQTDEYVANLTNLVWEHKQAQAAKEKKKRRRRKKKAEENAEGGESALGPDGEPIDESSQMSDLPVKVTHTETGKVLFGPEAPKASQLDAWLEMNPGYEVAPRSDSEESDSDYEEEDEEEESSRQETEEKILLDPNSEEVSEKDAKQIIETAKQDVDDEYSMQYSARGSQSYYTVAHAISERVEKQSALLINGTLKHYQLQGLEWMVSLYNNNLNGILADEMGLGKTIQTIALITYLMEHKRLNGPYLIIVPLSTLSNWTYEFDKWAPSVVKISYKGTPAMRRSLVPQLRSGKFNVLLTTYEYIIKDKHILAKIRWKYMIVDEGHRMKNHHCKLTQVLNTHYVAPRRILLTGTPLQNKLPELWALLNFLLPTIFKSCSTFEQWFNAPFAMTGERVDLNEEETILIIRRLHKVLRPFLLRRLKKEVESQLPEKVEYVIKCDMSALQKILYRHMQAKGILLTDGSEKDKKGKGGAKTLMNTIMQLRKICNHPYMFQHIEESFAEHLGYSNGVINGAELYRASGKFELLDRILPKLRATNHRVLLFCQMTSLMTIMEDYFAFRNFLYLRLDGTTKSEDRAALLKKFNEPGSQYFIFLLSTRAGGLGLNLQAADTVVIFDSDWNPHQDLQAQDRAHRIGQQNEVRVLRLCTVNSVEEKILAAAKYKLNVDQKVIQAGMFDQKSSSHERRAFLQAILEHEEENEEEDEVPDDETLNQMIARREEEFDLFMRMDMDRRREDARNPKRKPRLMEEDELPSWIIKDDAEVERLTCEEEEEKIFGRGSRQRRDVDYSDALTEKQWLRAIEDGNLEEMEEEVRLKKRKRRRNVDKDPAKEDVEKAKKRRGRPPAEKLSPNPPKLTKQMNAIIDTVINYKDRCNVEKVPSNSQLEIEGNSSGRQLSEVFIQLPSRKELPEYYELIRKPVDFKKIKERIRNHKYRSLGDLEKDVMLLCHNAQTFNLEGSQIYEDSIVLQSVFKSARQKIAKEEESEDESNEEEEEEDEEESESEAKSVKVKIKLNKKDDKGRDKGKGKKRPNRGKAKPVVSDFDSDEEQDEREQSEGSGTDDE

Regarding `CN1CCOc2c(-c3ccc4cnc(CNC(=O)c5ccc6c(c5)S(=O)(=O)CCOC6)cc4n3)ccnc21` [Compound 58], the IC50 came to 96.9 nM on BRM and 546 nM at BRG-1. For the same compound, the “Ratio* (BRG1 IC50 (μM) divided by BRM IC50 (μM))” value on BRM stood at 5.63.

As for `CCc1cc(C(=O)NCc2cc3nc(-c4cccc(N5C[C@@H](C)O[C@@H](C)C5)n4)ccc3cn2)cc2c1COCCS2(=O)=O` [Compound 59], at BRM, it took 73 nM to reach half-maximal inhibition (IC50) and the “Ratio* (BRG1 IC50 (μM) divided by BRM IC50 (μM))” value is listed as 10.68. Also, at BRG-1, the IC50 turned out to be 780 nM.

Take `COC[C@@H](C)Nc1cccc(-c2ccc3cnc(CNC(=O)c4ccc(C(F)F)c(S(C)(=O)=O)c4)cc3n2)n1` [Compound 60]: on BRM, the IC50 was 789 nM and the “Ratio* (BRG1 IC50 (μM) divided by BRM IC50 (μM))” value is on record as 6.34. The IC50 at BRG-1 worked out at 5000 nM.

Turning to `COC[C@H](C)Nc1cccc(-c2ccc3cnc(CNC(=O)c4ccc(C(F)F)c(S(C)(=O)=O)c4)cc3n2)n1` [Compound 61], the IC50 against BRM was found to be 956 nM; at BRG-1, 5000 nM. The “Ratio* (BRG1 IC50 (μM) divided by BRM IC50 (μM))” value on BRM is 5.23.

Consider `CCN(CC)c1cccc(-c2ccc3cnc(CNC(=O)c4cc(F)c5c(c4)S(=O)(=O)CCOC5)cc3n2)n1` [Compound 62], for which the values for the IC50 against BRM and at BRG-1 were 18.9 nM and 247 nM, respectively. Further, the “Ratio* (BRG1 IC50 (μM) divided by BRM IC50 (μM))” value at BRM worked out at 13.08.

Regarding `O=C(NCc1cc2nc(-c3cccc(C4CC4)n3)ccc2cn1)c1cc(F)c2c(c1)S(=O)(=O)CCOC2` [Compound 63], on BRM, the IC50 was 21.4 nM and the “Ratio* (BRG1 IC50 (μM) divided by BRM IC50 (μM))” value was 29.53. Also, on BRG-1, the IC50 is 633 nM.

Turning to `CO[C@@H](C)CN(C)c1cccc(-c2ccc3cnc(CNC(=O)c4ccc5c(c4)S(=O)(=O)CCOC5)cc3n2)n1` [Compound 64], the values for the IC50 against BRM and at BRG-1 were 17.5 nM and 340 nM, respectively. Further, at BRM, the “Ratio* (BRG1 IC50 (μM) divided by BRM IC50 (μM))” value turned out to be 19.39.

Take `CCO[C@@H]1CCOc2c(-c3ccc4cnc(CNC(=O)c5ccc6c(c5)S(=O)(=O)CCOC6)cc4n3)cccc21` [Compound 65]: at BRM, half-maximal inhibition (IC50) was put at 16.2 nM and the “Ratio* (BRG1 IC50 (μM) divided by BRM IC50 (μM))” value was determined as 6.14. Moreover, the IC50 on BRG-1 amounted to 99.7 nM.

With `CCO[C@H]1CCOc2c(-c3ccc4cnc(CNC(=O)c5ccc6c(c5)S(=O)(=O)CCOC6)cc4n3)cccc21` [Compound 66], on BRM, the IC50 was determined as 211 nM and the “Ratio* (BRG1 IC50 (μM) divided by BRM IC50 (μM))” value is 7.78. Further, at BRG-1, the IC50 was determined as 1640 nM.

For `CN[C@H]1CCN(c2cccc(-c3ccc4cnc(CNC(=O)c5ccc6c(c5)S(=O)(=O)CCOC6)cc4n3)n2)CC1(F)F` [Compound 67], the IC50 on BRM was found to be 89.4 nM; at BRG-1 it was 586 nM. For the same compound, the “Ratio* (BRG1 IC50 (μM) divided by BRM IC50 (μM))” value at BRM is reported as 6.55.

Turning to `CO[C@H](C)c1cccc(-c2ccc3cnc(CNC(=O)c4ccc5c(c4)S(=O)(=O)CCOC5)cc3n2)n1` [Compound 68], the IC50 turned out to be 433 nM against BRM and 4930 nM on BRG-1. Besides, the “Ratio* (BRG1 IC50 (μM) divided by BRM IC50 (μM))” value on BRM is 11.38.

For `CO[C@@H](C)c1cccc(-c2ccc3cnc(CNC(=O)c4ccc5c(c4)S(=O)(=O)CCOC5)cc3n2)n1` [Compound 69], on BRM, it took 262 nM to reach half-maximal inhibition (IC50) and the “Ratio* (BRG1 IC50 (μM) divided by BRM IC50 (μM))” value turned out to be 9.44. At BRG-1, the IC50 turned out to be 2470 nM.

As for `COC[C@H](C)N(C)c1cccc(-c2ccc3cnc(CNC(=O)c4ccc5c(c4)S(=O)(=O)CCOC5)cc3n2)n1` [Compound 70], at BRM, inhibition was half-maximal at 36.8 nM (IC50) and the “Ratio* (BRG1 IC50 (μM) divided by BRM IC50 (μM))” value is given as 11.02. For the same compound, the IC50 at BRG-1 was 406 nM.

On to `CN(CC1COC1)c1cccc(-c2ccc3cnc(CNC(=O)c4ccc5c(c4)S(=O)(=O)CCOC5)cc3n2)n1` [Compound 71], for which the IC50 worked out at 23.9 nM at BRM and 285 nM on BRG-1. Moreover, the “Ratio* (BRG1 IC50 (μM) divided by BRM IC50 (μM))” value at BRM turned out to be 11.93.

As to `COC[C@@H](C)N(C)c1cccc(-c2ccc3cnc(CNC(=O)c4ccc5c(c4)S(=O)(=O)CCOC5)cc3n2)n1` [Compound 72], at BRM, it took 224 nM to reach half-maximal inhibition (IC50) and the “Ratio* (BRG1 IC50 (μM) divided by BRM IC50 (μM))” value amounted to 5.48. For the same compound, on BRG-1, the concentration for half-maximal inhibition (IC50) stood at 1230 nM.
